As a reminder, the IC50 is the point on the concentration scale where inhibition reaches its midpoint. Lower therefore signals greater potency in that assay.

Drawing on patent US9676714B2, “Sulfonylindole derivatives and method for preparing the same” (Daewoong Pharmaceutical Co., Ltd., priority 2013, dated 2017), this text covers IC50 for 24 compounds.

This assay concerns the target T1, proton pump (H+/K+-ATPase) (Sus scrofa, UniProt P19156).
T1 construct: Gastric vesicles were prepared from hog stomach via centrifugal separation; from tissue; host or cells: hog stomach (gastric vesicles, method of Rabon et al. 1988)
Put plainly: Measurement of inhibitory effects on proton pump (H+/K+-ATPase) activities. The conditions noted are these: hog gastric vesicles, K+-specific H+/K+-ATPase activity, Tris-HCl buffer pH 7.4, 37° C. for 40 minutes, malachite green Pi readout. The class given is biochemical. The gist of the method:
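Hog gastric vesicles in 60 mmol/l Tris-HCl pH 7.4 with 0.5% DMSO were treated with compounds at room temperature; reaction was started with 10 μl of 10 mmol/l ATP stock. Released Pi was read at 570 nm, K+-specific activity taken as the ±K+ difference. IC50 from 4-parameter logistic fit.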

Counter-ions that a name gives are not always drawn.

T1 sequence (P19156 whole entry): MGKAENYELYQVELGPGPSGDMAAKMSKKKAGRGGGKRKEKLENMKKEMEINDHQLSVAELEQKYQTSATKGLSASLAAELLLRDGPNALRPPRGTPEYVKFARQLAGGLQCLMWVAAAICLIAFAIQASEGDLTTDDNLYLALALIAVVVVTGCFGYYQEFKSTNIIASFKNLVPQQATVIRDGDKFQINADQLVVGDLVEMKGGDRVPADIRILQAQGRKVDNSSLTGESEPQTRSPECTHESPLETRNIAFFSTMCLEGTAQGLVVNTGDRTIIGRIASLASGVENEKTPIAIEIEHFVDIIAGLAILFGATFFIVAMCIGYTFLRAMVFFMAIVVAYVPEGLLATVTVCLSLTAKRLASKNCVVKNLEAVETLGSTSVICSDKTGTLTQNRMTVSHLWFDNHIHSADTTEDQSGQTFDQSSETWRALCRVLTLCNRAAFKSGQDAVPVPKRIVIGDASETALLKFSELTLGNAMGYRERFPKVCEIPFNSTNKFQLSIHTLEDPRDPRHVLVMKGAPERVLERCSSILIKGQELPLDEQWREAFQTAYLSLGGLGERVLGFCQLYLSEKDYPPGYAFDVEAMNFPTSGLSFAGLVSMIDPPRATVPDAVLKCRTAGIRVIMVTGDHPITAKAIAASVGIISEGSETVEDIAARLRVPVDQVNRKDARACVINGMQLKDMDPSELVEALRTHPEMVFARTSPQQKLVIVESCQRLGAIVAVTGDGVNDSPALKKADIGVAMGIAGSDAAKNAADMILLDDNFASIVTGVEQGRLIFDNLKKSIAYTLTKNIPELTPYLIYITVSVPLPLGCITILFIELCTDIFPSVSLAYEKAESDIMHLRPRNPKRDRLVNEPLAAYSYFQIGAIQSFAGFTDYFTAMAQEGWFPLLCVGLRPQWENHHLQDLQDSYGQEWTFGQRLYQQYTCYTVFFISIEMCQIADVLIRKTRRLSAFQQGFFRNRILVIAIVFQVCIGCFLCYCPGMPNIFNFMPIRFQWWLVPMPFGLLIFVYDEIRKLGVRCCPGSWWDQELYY
T1 sequence (P18434 whole entry partner): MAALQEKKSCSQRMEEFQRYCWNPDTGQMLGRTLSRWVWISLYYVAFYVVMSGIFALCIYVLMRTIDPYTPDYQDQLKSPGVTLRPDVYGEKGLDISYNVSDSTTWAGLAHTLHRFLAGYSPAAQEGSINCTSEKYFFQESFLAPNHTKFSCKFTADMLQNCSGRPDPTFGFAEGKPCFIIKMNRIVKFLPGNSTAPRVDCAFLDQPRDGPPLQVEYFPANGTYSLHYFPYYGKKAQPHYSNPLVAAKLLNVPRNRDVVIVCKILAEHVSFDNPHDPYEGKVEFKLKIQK

The compound `CNCc1cn(S(=O)(=O)c2cccnc2)c2cc(Nc3ccc4c(c3)OCCO4)ccc12` [Example 97, N-(2,3-dihydrobenzo[b][1,4]dioxin-6-yl)-3-((methylamino)methyl)-1-(pyridin-3-ylsulfonyl)-1H-indol-6-amine hydrochloride] registered an IC50 of 670 nM.

Consider `CNCc1cn(S(=O)(=O)c2cccnc2)c2cc(Nc3ncccc3C)ccc12` [Example 98, 3-((methylamino)methyl)-N-(3-methylpyridin-2-yl)-1-(pyridin-3-ylsulfonyl)-1H-indol-6-amine hydrochloride], for which the IC50 turned out to be 1920 nM.

`CNCc1cn(S(=O)(=O)c2cccnc2)c2cc(Nc3ncccc3F)ccc12` [Example 99, N-(3-fluoropyridin-2-yl)-3-((methylamino)methyl)-1-(pyridin-3-ylsulfonyl)-1H-indol-6-amine hydrochloride] showed an IC50 of 1380 nM. Next, `CNCc1cn(S(=O)(=O)c2cccnc2)c2cc(Nc3ncccc3Cl)ccc12` [Example 100, N-(3-chloropyridin-2-yl)-3-((methylamino)methyl)-1-(pyridin-3-ylsulfonyl)-1H-indol-6-amine hydrochloride]: 800 nM. Next, `CNCc1cn(S(=O)(=O)c2cccnc2)c2cc(Nc3ncccc3C(F)(F)F)ccc12` [Example 101, 3-((methylamino)methyl)-1-(pyridin-3-ylsulfonyl)-N-(3-(trifluoromethyl)pyridin-2-yl)-1H-indol-6-amine hydrochloride]: 2200 nM; `CNCc1cn(S(=O)(=O)c2cccnc2)c2cc(Nc3ncccc3Br)ccc12` [Example 102, N-(3-bromopyridin-2-yl)-3-((methylamino)methyl)-1-(pyridin-3-ylsulfonyl)-1H-indol-6-amine hydrochloride]: 2520 nM. Next, `CNCc1cn(S(=O)(=O)c2cccnc2)c2cc(Nc3cccnc3C)ccc12` [Example 105, 3-((methylamino)methyl)-N-(2-methylpyridin-3-yl)-1-(pyridin-3-ylsulfonyl)-1H-indol-6-amine hydrochloride]: 880 nM.

The compound `CNCc1cn(S(=O)(=O)c2cccnc2)c2cc(Nc3cccnc3F)ccc12` [Example 106, N-(2-fluoropyridin-3-yl)-3-((methylamino)methyl)-1-(pyridin-3-ylsulfonyl)-1H-indol-6-amine hydrochloride] came in with a half-maximal inhibitory concentration (IC50) of 3380 nM.

Compound `CNCc1cn(S(=O)(=O)c2cccnc2)c2cc(Nc3cccnc3Cl)ccc12` [Example 107, N-(2-chloropyridin-3-yl)-3-((methylamino)methyl)-1-(pyridin-3-ylsulfonyl)-1H-indol-6-amine hydrochloride] registered an IC50 of 480 nM. As for `CNCc1cn(S(=O)(=O)c2cccnc2)c2cc(Nc3cccnc3C(F)(F)F)ccc12` [Example 109, 3-((methylamino)methyl)-1-(pyridin-3-ylsulfonyl)-N-(2-(trifluoromethyl)pyridin-3-yl)-1H-indol-6-amine hydrochloride], half-maximal inhibition (IC50) was put at 1980 nM. Under `CNCc1cn(S(=O)(=O)c2cccnc2)c2cc(Nc3cncc(Br)c3)ccc12` [Example 110, N-(5-bromopyridin-3-yl)-3-((methylamino)methyl)-1-(pyridin-3-ylsulfonyl)-1H-indol-6-amine hydrochloride] stands 5040 nM; under `CNCc1cn(S(=O)(=O)c2cccnc2)c2cc(Nc3ccc(C)nc3C)ccc12` [Example 111, N-(2,6-dimethylpyridin-3-yl)-3-((methylamino)methyl)-1-(pyridin-3-ylsulfonyl)-1H-indol-6-amine hydrochloride], 3210 nM; under `CNCc1cn(S(=O)(=O)c2cccnc2)c2cc(Nc3ccc(C)nc3F)ccc12` [Example 112, N-(2-fluoro-6-methylpyridin-3-yl)-3-((methylamino)methyl)-1-(pyridin-3-ylsulfonyl)-1H-indol-6-amine hydrochloride], 950 nM.

Compound `CNCc1cn(S(=O)(=O)c2cccnc2)c2cc(Nc3ccc(C)nc3Cl)ccc12` [Example 113, N-(2-chloro-6-methylpyridin-3-yl)-3-((methylamino)methyl)-1-(pyridin-3-ylsulfonyl)-1H-indol-6-amine hydrochloride] returned an IC50 of 340 nM. Next, `CNCc1cn(S(=O)(=O)c2cccnc2)c2cc(Nc3ccc(C)nc3C(F)(F)F)ccc12` [Example 115, N-(6-methyl-2-(trifluoromethyl)pyridin-3-yl)-3-((methylamino)methyl)-1-(pyridin-3-ylsulfonyl)-1H-indol-6-amine hydrochloride]: 1300 nM; `CNCc1cn(S(=O)(=O)c2cccnc2)c2cc(Nc3ccc(F)nc3C)ccc12` [Example 116, N-(6-fluoro-2-methylpyridin-3-yl)-3-((methylamino)methyl)-1-(pyridin-3-ylsulfonyl)-1H-indol-6-amine hydrochloride]: 1570 nM; `CNCc1cn(S(=O)(=O)c2cccnc2)c2cc(Nc3ccc(Cl)nc3C)ccc12` [Example 118, N-(6-chloro-2-methylpyridin-3-yl)-3-((methylamino)methyl)-1-(pyridin-3-ylsulfonyl)-1H-indol-6-amine hydrochloride]: 480 nM.

As to `CNCc1cn(S(=O)(=O)c2cccnc2)c2cc(Nc3ccc(Cl)nc3Cl)ccc12` [Example 119, N-(2,6-dichloropyridin-3-yl)-3-((methylamino)methyl)-1-(pyridin-3-ylsulfonyl)-1H-indol-6-amine hydrochloride], the IC50 worked out at 480 nM. The compound `CNCc1cn(S(=O)(=O)c2cccnc2)c2cc(Nc3ccc(Cl)nc3C(F)(F)F)ccc12` [Example 121, N-(6-chloro-2-(trifluoromethyl)pyridin-3-yl)-3-((methylamino)methyl)-1-(pyridin-3-ylsulfonyl)-1H-indol-6-amine hydrochloride] yielded an IC50 of 440 nM. Under `CNCc1cn(S(=O)(=O)c2cccnc2)c2cc(Nc3ccc(C(F)(F)F)nc3C)ccc12` [Example 124, N-(2-methyl-6-(trifluoromethyl)pyridin-3-yl)-3-((methylamino)methyl)-1-(pyridin-3-ylsulfonyl)-1H-indol-6-amine hydrochloride] stands 580 nM.

Consider `CNCc1cn(S(=O)(=O)c2cccnc2)c2cc(Nc3cc(Cl)cnc3C)ccc12` [Example 126, N-(5-chloro-2-methylpyridin-3-yl)-3-((methylamino)methyl)-1-(pyridin-3-ylsulfonyl)-1H-indol-6-amine hydrochloride], for which the IC50 is 510 nM. For `CNCc1cn(S(=O)(=O)c2cccnc2)c2cc(Nc3c(C)ccnc3Cl)ccc12` [Example 127, N-(2-chloro-4-methylpyridin-3-yl)-3-((methylamino)methyl)-1-(pyridin-3-ylsulfonyl)-1H-indol-6-amine hydrochloride], the IC50 turned out to be 640 nM. Next, `CNCc1cn(S(=O)(=O)c2cccnc2)c2cc(Nc3ccncc3Cl)ccc12` [Example 128, N-(3-chloropyridin-4-yl)-3-((methylamino)methyl)-1-(pyridin-3-ylsulfonyl)-1H-indol-6-amine hydrochloride]: 1220 nM; `CNCc1cn(S(=O)(=O)c2cccnc2)c2cc(Nc3ccncc3C(F)(F)F)ccc12` [Example 129, 3-((methylamino)methyl)-1-(pyridin-3-ylsulfonyl)-N-(3-(trifluoromethyl)pyridin-4-yl)-1H-indol-6-amine hydrochloride]: 10200 nM.
